# Data as given in PubChem BioAssay (NCI).
#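 48-hour exposure; five concentrations; linearly interpolated endpoints. TGI: concentration producing complete growth inhibition.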
# Legend:
# Test in all cases: NCI tumour cell line growth inhibition, 48 h
# SNB-75 CNS = system: SNB-75 CNS
# HT29 colon = system: HT29 colon
# HCT-15 colon = system: HCT-15 colon
# HL-60(TB) leukemia = system: HL-60(TB) leukemia
# SK-MEL-28 melanoma = system: SK-MEL-28 melanoma
# M14 melanoma = system: M14 melanoma
# UO-31 renal = system: UO-31 renal
# MALME-3M melanoma = system: MALME-3M melanoma
# UACC-257 melanoma = system: UACC-257 melanoma
# SN12C renal = system: SN12C renal
# OVCAR-3 ovarian = system: OVCAR-3 ovarian
# DMS 273 small cell lung = system: DMS 273 small cell lung
# SF-295 CNS = system: SF-295 CNS
# LXFL 529 NSCLC = system: LXFL 529 NSCLC
# SW-620 colon = system: SW-620 colon
# SF-539 CNS = system: SF-539 CNS
# XF 498 CNS = system: XF 498 CNS
# SK-OV-3 ovarian = system: SK-OV-3 ovarian
# OVCAR-8 ovarian = system: OVCAR-8 ovarian
# UACC-62 melanoma = system: UACC-62 melanoma
# SK-MEL-5 melanoma = system: SK-MEL-5 melanoma
# SNB-78 CNS = system: SNB-78 CNS
# KM12 colon = system: KM12 colon
# ACHN renal = system: ACHN renal
# DLD-1 colon = system: DLD-1 colon
# SF-268 CNS = system: SF-268 CNS
# K-562 leukemia = system: K-562 leukemia
# NCI-H522 lung = system: NCI-H522 lung
# IGROV1 ovarian = system: IGROV1 ovarian
# M19-MEL melanoma = system: M19-MEL melanoma
# 786-0 renal = system: 786-0 renal
# U251 CNS = system: U251 CNS
# HCT-116 colon = system: HCT-116 colon
# NCI-H226 lung = system: NCI-H226 lung
# DMS 114 small cell lung = system: DMS 114 small cell lung
# SK-MEL-2 melanoma = system: SK-MEL-2 melanoma
# NCI-H460 lung = system: NCI-H460 lung
# TK-10 renal = system: TK-10 renal
# OVCAR-4 ovarian = system: OVCAR-4 ovarian
# NCI-H23 lung = system: NCI-H23 lung
# HOP-18 NSCLC = system: HOP-18 NSCLC
# A549 NSCLC = system: A549 NSCLC
# LOX IMVI melanoma = system: LOX IMVI melanoma
# MOLT-4 leukemia = system: MOLT-4 leukemia
# CCRF-CEM leukemia = system: CCRF-CEM leukemia
# BT-549 breast = system: BT-549 breast
# HS 578T breast = system: HS 578T breast
# T-47D breast = system: T-47D breast
# MCF7 breast = system: MCF7 breast
# A498 renal = system: A498 renal
# HCC-2998 colon = system: HCC-2998 colon
# SNB-19 CNS = system: SNB-19 CNS
# RPMI-8226 leukemia = system: RPMI-8226 leukemia
# COLO 205 colon = system: COLO 205 colon
# HOP-62 NSCLC = system: HOP-62 NSCLC
# MDA-MB-231 breast = system: MDA-MB-231 breast
# OVCAR-5 ovarian = system: OVCAR-5 ovarian
# MDA-MB-435 = system: MDA-MB-435
# RXF 393 renal = system: RXF 393 renal
# MDA-N = system: MDA-N
# PC-3 prostate = system: PC-3 prostate
# EKVX NSCLC = system: EKVX NSCLC
# CAKI-1 renal = system: CAKI-1 renal
# SR leukemia = system: SR leukemia
# DU-145 prostate = system: DU-145 prostate
# NCI/ADR-RES ovarian = system: NCI/ADR-RES ovarian
# HOP-92 NSCLC = system: HOP-92 NSCLC
structure (smiles),measurement,setting,value
CC(Oc1ccc(OCC2CCCCC2)cc1)C(=O)O (stereo unspecified),TGI,SNB-75 CNS,> 100 µM
same,TGI,HT29 colon,> 100 µM
same,TGI,HCT-15 colon,> 100 µM
same,TGI,HL-60(TB) leukemia,> 100 µM
same,TGI,SK-MEL-28 melanoma,> 100 µM
same,TGI,M14 melanoma,> 100 µM
same,TGI,UO-31 renal,> 100 µM
same,TGI,MALME-3M melanoma,> 100 µM
same,TGI,UACC-257 melanoma,> 100 µM
same,TGI,SN12C renal,> 100 µM
same,TGI,OVCAR-3 ovarian,> 100 µM
same,TGI,DMS 273 small cell lung,> 100 µM
same,TGI,SF-295 CNS,> 100 µM
same,TGI,LXFL 529 NSCLC,> 100 µM
same,TGI,SW-620 colon,> 100 µM
same,TGI,SF-539 CNS,> 100 µM
same,TGI,XF 498 CNS,> 100 µM
same,TGI,SK-OV-3 ovarian,> 100 µM
same,TGI,OVCAR-8 ovarian,> 100 µM
same,TGI,UACC-62 melanoma,> 100 µM
same,TGI,SK-MEL-5 melanoma,> 100 µM
same,TGI,SNB-78 CNS,> 100 µM
same,TGI,KM12 colon,> 100 µM
same,TGI,ACHN renal,> 100 µM
same,TGI,DLD-1 colon,> 100 µM
same,TGI,SF-268 CNS,> 100 µM
same,TGI,K-562 leukemia,> 100 µM
same,TGI,NCI-H522 lung,> 100 µM
same,TGI,IGROV1 ovarian,> 100 µM
same,TGI,M19-MEL melanoma,> 100 µM
same,TGI,786-0 renal,> 100 µM
same,TGI,U251 CNS,> 100 µM
same,TGI,HCT-116 colon,> 100 µM
same,TGI,NCI-H226 lung,> 100 µM
same,TGI,DMS 114 small cell lung,> 100 µM
same,TGI,SK-MEL-2 melanoma,> 100 µM
same,TGI,NCI-H460 lung,> 100 µM
same,TGI,TK-10 renal,> 100 µM
same,TGI,OVCAR-4 ovarian,> 100 µM
same,TGI,NCI-H23 lung,> 100 µM
same,TGI,HOP-18 NSCLC,> 100 µM
same,TGI,A549 NSCLC,> 100 µM
same,TGI,LOX IMVI melanoma,> 100 µM
same,TGI,MOLT-4 leukemia,> 100 µM
same,TGI,CCRF-CEM leukemia,> 100 µM
N#CC(N=Nc1ccccc1)c1nc2ccccc2o1 (stereo unspecified),TGI,BT-549 breast,46 µM
same,TGI,HS 578T breast,66.8 µM
same,TGI,HT29 colon,> 100 µM
same,TGI,T-47D breast,39.9 µM
same,TGI,HCT-15 colon,> 100 µM
same,TGI,MCF7 breast,> 100 µM
same,TGI,HL-60(TB) leukemia,> 100 µM
same,TGI,SK-MEL-28 melanoma,> 100 µM
same,TGI,M14 melanoma,> 100 µM
same,TGI,UO-31 renal,> 100 µM
same,TGI,MALME-3M melanoma,> 100 µM
same,TGI,A498 renal,> 100 µM
same,TGI,UACC-257 melanoma,> 100 µM
same,TGI,SN12C renal,> 100 µM
same,TGI,OVCAR-3 ovarian,92.7 µM
same,TGI,HCC-2998 colon,> 100 µM
same,TGI,SNB-19 CNS,> 100 µM
same,TGI,RPMI-8226 leukemia,> 100 µM
same,TGI,SF-295 CNS,35.5 µM
same,TGI,COLO 205 colon,68.7 µM
same,TGI,SF-539 CNS,28.8 µM
same,TGI,HOP-62 NSCLC,39 µM
same,TGI,MDA-MB-231 breast,57.4 µM
same,TGI,SK-OV-3 ovarian,68 µM
same,TGI,OVCAR-8 ovarian,79.4 µM
same,TGI,UACC-62 melanoma,> 100 µM
same,TGI,OVCAR-5 ovarian,> 100 µM
same,TGI,MDA-MB-435,> 100 µM
same,TGI,SK-MEL-5 melanoma,> 100 µM
same,TGI,KM12 colon,> 100 µM
same,TGI,RXF 393 renal,61.4 µM
same,TGI,MDA-N,> 100 µM
same,TGI,ACHN renal,56.4 µM
same,TGI,SF-268 CNS,59.9 µM
same,TGI,K-562 leukemia,> 100 µM
same,TGI,PC-3 prostate,> 100 µM
same,TGI,EKVX NSCLC,> 100 µM
same,TGI,NCI-H522 lung,> 100 µM
same,TGI,CAKI-1 renal,> 100 µM
same,TGI,IGROV1 ovarian,42.9 µM
same,TGI,SR leukemia,> 100 µM
same,TGI,786-0 renal,45.5 µM
same,TGI,U251 CNS,59.5 µM
same,TGI,HCT-116 colon,57.5 µM
same,TGI,NCI-H226 lung,> 100 µM
same,TGI,SK-MEL-2 melanoma,70.5 µM
same,TGI,NCI-H460 lung,> 100 µM
same,TGI,DU-145 prostate,72.4 µM
same,TGI,NCI/ADR-RES ovarian,64 µM
same,TGI,TK-10 renal,58.3 µM
same,TGI,OVCAR-4 ovarian,37.9 µM
same,TGI,NCI-H23 lung,43.9 µM
same,TGI,A549 NSCLC,> 100 µM
same,TGI,HOP-92 NSCLC,46.7 µM
same,TGI,MOLT-4 leukemia,> 100 µM
same,TGI,CCRF-CEM leukemia,> 100 µM
